Assay results taken from patent publication US20110190215A1, “THERAPEUTIC USE OF PEPTIDES” (priority 2008, published 2011).
Entries after “also recorded” stand apart in the source; their conditions may differ. Where no end group is shown, it is not given here.

How the values were obtained:
leptin = test: Proteomic microarray (antibody membrane, chemiluminescence): leptin protein expression in TR146 cells; type: cell-based; details: TR146 buccal mucosal cells, 2.0 μM peptide, 24 hours, vs mock-treated
Procedure: (§1) TR146 buccal mucosal cells, obtained from Cancer Research U.K., were propagated in Dulbecco's modified Eagle medium (DMEM) high glucose (Gibco). The culture medium supplemented with 3.7 mg/ml NaHCO3, 10% FCS, 50 units/ml penicillin G, and […] streptomycin sulphate. Cells were passaged when 90% confluence was reached. The medium was discarded, and cells were washed twice with sterile DPBS (without calcium and magnesium, Cellgro) and 0.25% trypsin-EDTA solution (Gibco) was added. The flask was placed at 37° C. for 10 minutes and then detached cells were suspended in growth medium and seeded in new flasks (dishes micro-well plates).
For proteomic microarray analysis, cells at 75-80% confluence in T75 flasks were treated with equimolar (2.0 μM) concentrations of a peptide consisting of the sequence FVAPFPEVFGKEKV (SEQ ID NO 2), […] (SEQ ID NO 3), GPVRGPFPI (SEQ ID NO 4), EPVLGPVRGPFPI (SEQ ID NO 5), VPYPQRDMPIQ (SEQ ID NO 6), […] (SEQ ID NO 7), EPVLGPVR (SEQ ID NO 8) and […] (SEQ ID NO 1). Mock-treated cells received same volume of solvent. After 24 hours the cells were washed twice with DPBS, trypsinized, suspended in 5 ml growth media and centrifuged (800 g for 10 minutes). Cells were resuspended in 5 ml DPBS and centrifuged again.
Antibodies specific to leptin were immobilised on the surface of a membrane. Sample extracts of cell samples each treated with peptides of amino acid sequences SEQ ID NO 1, 2, 3, 4, 5, 6, 7 and 8 were incubated with the membranes. Biotinylated antibodies, specific to leptin-antibody complexes, were then incubated with the membranes. Bound leptin was quantified by measuring chemiluminescence.

[1] = system: beta 2 gamma-aminobutyric acid receptor, theta; test: Microarray gene expression in peptide-treated TR146 cells: beta 2 GABA receptor, theta; type: cell-based; details: TR146 buccal mucosal cells, 2.0 μM peptide, 6 hours, vs mock-treated, Affymetrix Human Genome Focus Array
Procedure: as §1
(§2) For microarray analysis, cells at 75-80% confluence in T75 flasks were treated with equimolar (2.0 μM) concentrations of peptide of SEQ ID NO 5. Mock-treated cells received same volume of solvent. After 6 hours the cells were washed twice with DPBS, trypsinized, suspended in 5 ml growth media and centrifuged (800 g for 10 minutes). Cells were resuspended in 5 ml DPBS and centrifuged again. […]
(§3) RNA isolation for Microarray Procedure Total RNAs were isolated with an Ambion RNAqueous Kit, and cDNAs were synthesized and purified for Affymetrix GeneChip® Human Genome Focus Array analysis. Raw data were analyzed by the Affymetrix NetAFFX Analysis Center online tools.
(§4) The nature of change of gene expression profile in response to the peptide was determined. […]

[2] = system: glutamate decarboxylase 2 (pancreatic islets, lung and brain, 65 kDa); test: Microarray gene expression in peptide-treated TR146 cells: glutamate decarboxylase 2 (65 kDa); type: cell-based; details: TR146 buccal mucosal cells, 2.0 μM peptide, 6 hours, vs mock-treated, Affymetrix Human Genome Focus Array
Procedure: as §1, §2, §3, §4

rho 2 = test: Microarray gene expression in peptide-treated TR146 cells: rho 2; type: cell-based; details: TR146 buccal mucosal cells, 2.0 μM peptide, 6 hours, vs mock-treated, Affymetrix Human Genome Focus Array
Procedure: as §1, §2, §3, §4

[3] = system: gamma-aminobutyric acid A receptor (GABAAR); test: Microarray gene expression in peptide-treated TR146 cells: GABA A receptor; type: cell-based; details: TR146 buccal mucosal cells, 2.0 μM peptide, 6 hours, vs mock-treated, Affymetrix Human Genome Focus Array
Procedure: as §1, §2, §3, §4

Resistin = test: Microarray gene expression in peptide-treated TR146 cells: resistin; type: cell-based; details: TR146 buccal mucosal cells, 2.0 μM peptide, 6 hours, vs mock-treated, Affymetrix Human Genome Focus Array
Procedure: as §1
(§5) For microarray analysis, cells at 75-80% confluence in T75 flasks were treated with equimolar (2.0 μM) concentrations of peptides. Mock-treated cells received same volume of solvent. After 6 hours the cells were washed twice with DPBS, trypsinized, suspended in 5 ml growth media and centrifuged (800 g for 10 minutes). Cells were resuspended in 5 ml DPBS and centrifuged again. Cell pellets were used for RNA isolation.
(§6) Total RNAs were isolated with an Ambion RNAqueous Kit, and cDNAs were synthesized and purified for Affymetrix GeneChip® Human Genome Focus Array analysis. Raw data were analyzed by the Affymetrix NetAFFX Analysis Center online tools.
as §4

[4] = Body weight of mice on high-fat diet (HFD) co-administered peptides; type: in vivo; details: for body weight gain compared to control fed with HFD alone: peptide co-administered with HFD for 10 months; for body weight: peptide co-administered with high-fat diet (HFD) for 10 months, HFD control 54.7 g, regular diet 29.8 g
[5] = system: Renin (angiotensinogenase); test: Microarray gene expression in peptide-treated TR146 cells: renin; type: cell-based; details: TR146 buccal mucosal cells, 2.0 μM peptide, 6 hours, vs mock-treated, Affymetrix Human Genome Focus Array
Procedure: as §1, §5, §6, §4

[6] = system: Amyloid Beta (A4) Precursor Protein (APP); test: Microarray gene expression in peptide-treated TR146 cells: APP; type: cell-based; details: TR146 buccal mucosal cells, 2.0 μM peptide, 6 hours, vs mock-treated, Affymetrix Human Genome Focus Array
Procedure: as §1
(§7) For microarray analysis, cells at 75-80% confluence in T75 flasks were treated with equimolar (2.0 μM) concentrations of a peptide consisting of the sequence RMPLPPRGCPAAAPWS (SEQ ID NO 10) or […] (SEQ ID NO 1). Mock-treated cells received same volume of solvent. […]
as §6
(§8) The nature of change of gene expression profile in response to each of the peptides consisting of the sequence RMPLPPRGCPAAAPWS (SEQ ID NO 10) or […] (SEQ ID NO 1) was determined. […]

Stathmin-1 = test: Microarray gene expression in peptide-treated TR146 cells: Stathmin-1; type: cell-based; details: TR146 buccal mucosal cells, 2.0 μM peptide, 6 hours, vs mock-treated, Affymetrix Human Genome Focus Array
Procedure: as §1, §7, §6, §8

[7] = system: protein-tyrosine phosphatase, receptor-type, F; test: Microarray gene expression in peptide-treated TR146 cells: protein-tyrosine phosphatase, receptor-type, F; type: cell-based; details: TR146 buccal mucosal cells, 2.0 μM peptide, 6 hours, vs mock-treated, Affymetrix Human Genome Focus Array
Procedure: as §1, §7, §6, §8

[8] = system: TR146 buccal mucosal cells; test: Microarray gene expression profile of peptide-treated TR146 cells (number of genes altered); type: cell-based, human; details: 2.0 μM peptide, 6 hours
Procedure: as §1
as §5, with “a peptide consisting of the sequence […] (SEQ ID NO 1).” for “peptides.”
as §6
The nature of change of gene expression profile in response to the peptide consisting of the sequence […] (SEQ ID NO 1) was determined. Four result files were generated: 1. Molecular networks; 2. Biological functions and diseases; 3. Metabolic-, signalling-, and other molecular pathways; 4. Network node molecule lists. Fischer's exact test was used to calculate a p-value determining the probability that each biological function and/or disease assigned to that data set is due to chance alone.

Bleomycin hydrolase = test: Microarray gene expression in peptide-treated TR146 cells: bleomycin hydrolase; type: cell-based; details: TR146 buccal mucosal cells, 2.0 μM peptide, 6 hours, vs mock-treated, Affymetrix Human Genome Focus Array
Procedure: as §1
(§9) For microarray analysis, cells at 75-80% confluence in T75 flasks were treated with equimolar (2.0 μM) concentrations of a peptide consisting of the sequence […] (SEQ ID NO 1). […]
as §6
(§10) The nature of change of gene expression profile in response to the peptide consisting of the sequence […] (SEQ ID NO 1) was determined. […]
as §8

[9] = system: glutamate receptor, metabotropic 8; test: Microarray gene expression in peptide-treated TR146 cells: metabotropic glutamate receptor 8; type: cell-based; details: TR146 buccal mucosal cells, 2.0 μM peptide, 6 hours, vs mock-treated, Affymetrix Human Genome Focus Array
Procedure: as §1, §9, §6, §10, §8

[10] = system: glutamate receptor, ionotropic, N-methyl D-aspartate 2A; test: Microarray gene expression in peptide-treated TR146 cells: NMDA 2A glutamate receptor; type: cell-based; details: TR146 buccal mucosal cells, 2.0 μM peptide, 6 hours, vs mock-treated, Affymetrix Human Genome Focus Array
Procedure: as §1, §9, §6, §10, §8

[11] = system: Apolipoprotein E (APOE) and receptors; test: Microarray gene expression in peptide-treated TR146 cells: APOE and receptors; type: cell-based; details: TR146 buccal mucosal cells, 2.0 μM peptide, 6 hours, vs mock-treated, Affymetrix Human Genome Focus Array
Procedure: as §1, §9, §6, §10, §8

[12] = system: glutamate receptor, metabotropic 7; test: Microarray gene expression in peptide-treated TR146 cells: metabotropic glutamate receptor 7; type: cell-based; details: TR146 buccal mucosal cells, 2.0 μM peptide, 6 hours, vs mock-treated, Affymetrix Human Genome Focus Array
Procedure: as §1, §9, §6, §10, §8

[13] = system: brain glutamate decarboxylase 2; test: Microarray gene expression in peptide-treated TR146 cells: brain glutamate decarboxylase 2; type: cell-based; details: TR146 buccal mucosal cells, 2.0 μM peptide, 6 hours, vs mock-treated, Affymetrix Human Genome Focus Array
Procedure: as §1, §9, §6, §10, §8

## EPVLGPVR (listed as Ovis sp.) [SEQ ID NO 8, peptide homologous with positions 195-202 of casein beta]
leptin
  protein expression of leptin: upregulated

## EPVLGPVRGPFPI (listed as Ovis sp.) [SEQ ID NO 5, peptide homologous with positions 195 to 207 of casein beta]
[1]
  gene expression of beta 2 gamma-aminobutyric acid receptor, theta: downregulated
[2]
  gene expression of glutamate decarboxylase 2 (pancreatic islets, lung and brain, 65 kDa): downregulated
Rho 2
  gene expression of rho 2: downregulated
leptin
  protein expression of leptin: upregulated
[3]
  gene expression of gamma-aminobutyric acid A receptor (GABAAR): downregulated

## FVAPFPEVFGKEKV (listed as Ovis sp.) [SEQ ID NO 2, peptide homologous with positions 39 to 52 of casein alpha S-1]
Resistin
  gene expression of resistin: down-regulated
[4]
  body weight gain compared to control fed with HFD alone: lower
  body weight: 52.1 g
[5]
  gene expression of renin (angiotensinogenase): down-regulated
leptin
  protein expression of leptin: upregulated

## GPVRGPFPI (listed as Ovis sp.) [SEQ ID NO 4, peptide homologous with positions 199-207 of casein beta]
leptin
  protein expression of leptin: upregulated

## RGPFPIIV (listed as Ovis sp.) [SEQ ID NO 9, peptide said to be homologous with positions 202-209 of casein alpha S-1]
[4]
  body weight gain compared to control fed with HFD alone: lower
  body weight: 51.1 g

## RMPLPPRGCPAAAPWS (listed as Ovis sp.) [SEQ ID NO 10]
[6]
  gene expression of Amyloid Beta (A4) Precursor Protein (APP): downregulated
Stathmin-1
  gene expression of Stathmin-1: upregulated
[7]
  gene expression of protein-tyrosine phosphatase, receptor-type, F: downregulated
[4]
  body weight gain compared to control fed with HFD alone: lower
  body weight: 50.1 g

## RPKHPIKHQGLPQEVLNENLLRF [SEQ ID NO 1]
[8]
  number of genes down-regulated: 296 genes
  number of genes up-regulated: 101 genes
[8]; total altered
  number of genes with altered expression: ~400 genes
Bleomycin hydrolase
  gene expression of bleomycin hydrolase: Upregulation; also recorded: upregulated
[9]
  gene expression of glutamate receptor, metabotropic 8: Downregulation; also recorded: down-regulated
[10]
  gene expression of glutamate receptor, ionotropic, N-methyl D-aspartate 2A: Downregulation; also recorded: down-regulated
[11]
  gene expression of Apolipoprotein E (APOE) and receptors: Downregulation; also recorded: down-regulated
[12]
  gene expression of glutamate receptor, metabotropic 7: Downregulation; also recorded: down-regulated
[13]
  gene expression of brain glutamate decarboxylase 2: Downregulation; also recorded: down-regulated
leptin
  protein expression of leptin: upregulated

## SDIPNPIGSENSEKTTMPLW (listed as Ovis sp.) [SEQ ID NO 3, peptide homologous with positions 195-214 of casein alpha S-1]
leptin
  protein expression of leptin: upregulated

## SLSQSKVLPVPQKAVPYPQRDMPIQ (listed as Ovis sp.) [SEQ ID NO 7, peptide homologous with positions 164-188 of casein beta]
leptin
  protein expression of leptin: upregulated

## VPYPQRDMPIQ (listed as Ovis sp.) [SEQ ID NO 6, peptide homologous with positions 178-188 of casein beta]
leptin
  protein expression of leptin: upregulated
